Entries after “also recorded” stand apart in the source; their conditions may differ. Where two headings read alike, the source gives them in different places. Each block holds one molecule with its values, some of them ahead of it.
Experiments:
human FXRα [1] = target: T1, human FXRα (Homo sapiens, UniProt Q96RI1); experiment: cell-based
T1 sequence (Q96RI1 1-486): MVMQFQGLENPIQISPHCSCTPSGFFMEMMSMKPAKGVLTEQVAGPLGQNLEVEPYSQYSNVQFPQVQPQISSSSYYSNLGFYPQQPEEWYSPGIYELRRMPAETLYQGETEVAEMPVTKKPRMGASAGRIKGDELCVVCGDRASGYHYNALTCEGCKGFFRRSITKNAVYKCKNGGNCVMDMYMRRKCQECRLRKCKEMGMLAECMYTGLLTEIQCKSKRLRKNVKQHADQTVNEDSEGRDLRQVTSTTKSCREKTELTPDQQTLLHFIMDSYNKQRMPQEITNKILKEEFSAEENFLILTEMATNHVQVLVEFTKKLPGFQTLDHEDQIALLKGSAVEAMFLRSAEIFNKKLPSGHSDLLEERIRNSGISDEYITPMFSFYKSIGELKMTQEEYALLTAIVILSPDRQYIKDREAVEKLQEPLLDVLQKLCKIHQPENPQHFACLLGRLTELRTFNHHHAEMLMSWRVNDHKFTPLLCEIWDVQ
T1 sequence (P19793 1-462 partner): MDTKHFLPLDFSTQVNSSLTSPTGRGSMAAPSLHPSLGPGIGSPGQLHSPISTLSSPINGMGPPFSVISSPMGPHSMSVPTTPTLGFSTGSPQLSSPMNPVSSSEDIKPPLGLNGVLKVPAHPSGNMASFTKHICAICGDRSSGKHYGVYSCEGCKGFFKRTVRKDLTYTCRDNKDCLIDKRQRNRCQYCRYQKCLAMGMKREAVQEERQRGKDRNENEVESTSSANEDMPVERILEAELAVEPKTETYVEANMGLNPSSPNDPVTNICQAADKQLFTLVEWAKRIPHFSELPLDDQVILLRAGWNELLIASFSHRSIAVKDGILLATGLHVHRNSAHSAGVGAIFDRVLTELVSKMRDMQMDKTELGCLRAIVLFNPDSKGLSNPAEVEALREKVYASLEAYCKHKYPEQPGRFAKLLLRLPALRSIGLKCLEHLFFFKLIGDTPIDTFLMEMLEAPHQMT

medaka FXRα2 [2] = target: T2, medaka FXRα2 (Oryzias latipes, UniProt H2M6M7); experiment: Transient transactivation luciferase assay in HEK293T cells, antagonist mode; assay type: cell-based; details: Antagonists, in the presence of GW4064
T2 sequence (H2M6M7 1-485): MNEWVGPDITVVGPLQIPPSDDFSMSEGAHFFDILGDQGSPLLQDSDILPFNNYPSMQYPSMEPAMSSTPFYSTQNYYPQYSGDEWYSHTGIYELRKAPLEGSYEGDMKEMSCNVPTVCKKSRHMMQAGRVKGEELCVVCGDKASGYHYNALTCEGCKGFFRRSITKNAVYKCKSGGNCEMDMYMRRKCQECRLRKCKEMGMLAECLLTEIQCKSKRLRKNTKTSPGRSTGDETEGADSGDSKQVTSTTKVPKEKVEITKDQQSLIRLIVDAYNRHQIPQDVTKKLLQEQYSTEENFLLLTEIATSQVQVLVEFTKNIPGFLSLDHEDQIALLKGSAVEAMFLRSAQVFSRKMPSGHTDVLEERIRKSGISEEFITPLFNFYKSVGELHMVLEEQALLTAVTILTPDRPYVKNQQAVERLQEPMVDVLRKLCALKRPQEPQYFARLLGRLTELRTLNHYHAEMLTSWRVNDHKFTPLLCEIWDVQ

Human FXRa [3] = details: Antagonists, cited from earlier work; for AC50: Tox21 qHTS, ref US EPA CompTox Chemicals Dashboard; for Tox21 Results Human FXRa Activity Human FXRa: Hsu et al. 2016
[4] = target: NR box of human PGC1α fused to the yeast Gal4 DNA-binding domain (pM-PGC1α) (human) (UniProt Q9UBK2); experiment: two-hybrid
human FXRα [5] = target: T1, human FXRα; assay type: cell-based
medaka FXRα2 [6] = target: T2, medaka FXRα2; experiment: Transient transactivation luciferase assay in HEK293T cells, agonist mode; assay type: cell-based
Human FXRa [7] = details: Agonists, cited from earlier work
medaka larvae = experiment: Toxicity to medaka larvae during in vivo exposure; set-up: species or system Medaka (Oryzias latipes); details: between 0.5 and 10 µM
[8] = target: NR box of human PGC1α fused to the yeast Gal4 DNA-binding domain (pM-PGC1α) (human) (UniProt Q9UBK2); experiment: two-hybrid; remark: listed apart in the source
[9] = read-out: Current Study Human FXRa AC50
[10] = Tox21 qHTS, ref US EPA CompTox Chemicals Dashboard
[11] = Agonists, HEK293T, 24 h, listed as prometon
[12] = Agonists, HEK293T, 24 h, listed as maleic hydrazide

NR box of human PGC1α fused to the yeast Gal4 DNA-binding domain (pM-PGC1α) (human), sequence (Q9UBK2 whole entry, the tested form may be a part): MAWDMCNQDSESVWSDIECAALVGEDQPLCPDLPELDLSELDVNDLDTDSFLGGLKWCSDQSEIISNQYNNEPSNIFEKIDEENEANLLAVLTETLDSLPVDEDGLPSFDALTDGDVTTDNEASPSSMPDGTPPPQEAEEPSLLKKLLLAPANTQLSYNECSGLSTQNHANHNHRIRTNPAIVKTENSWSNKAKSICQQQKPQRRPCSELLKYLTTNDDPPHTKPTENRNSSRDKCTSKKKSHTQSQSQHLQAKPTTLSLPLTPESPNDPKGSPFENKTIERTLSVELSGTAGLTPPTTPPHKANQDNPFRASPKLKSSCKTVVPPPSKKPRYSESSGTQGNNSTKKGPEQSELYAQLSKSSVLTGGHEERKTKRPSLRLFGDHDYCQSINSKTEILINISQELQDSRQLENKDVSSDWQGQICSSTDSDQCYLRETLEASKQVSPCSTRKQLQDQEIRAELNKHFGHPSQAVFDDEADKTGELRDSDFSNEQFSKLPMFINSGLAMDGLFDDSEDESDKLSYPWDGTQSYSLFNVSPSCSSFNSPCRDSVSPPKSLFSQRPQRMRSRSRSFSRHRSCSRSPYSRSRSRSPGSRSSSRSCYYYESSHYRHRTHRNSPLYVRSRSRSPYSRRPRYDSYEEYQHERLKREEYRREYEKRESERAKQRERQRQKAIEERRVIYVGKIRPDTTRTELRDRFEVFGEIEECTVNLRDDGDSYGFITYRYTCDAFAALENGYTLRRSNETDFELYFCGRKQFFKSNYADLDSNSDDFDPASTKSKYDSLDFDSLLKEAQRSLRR

Molecule: Cc1c(COC(=O)[C@@H]2[C@H](/C=C(\Cl)C(F)(F)F)C2(C)C)cccc1-c1ccccc1 (racemic) [Bifenthrin]
AC50 (human FXRα [1]): 34.6 µM | Current Study Human FXRa Activity Human FXRa (human FXRα [1]): Active | EC50 (human FXRα [1]): 34.6 µM | Current Study Medaka FXRa2 Activity Medaka FXRa2 (medaka FXRα2 [2]): exhibited antagonist activity; also recorded: Active | AC50 (Human FXRa [3]): 13.3 µM | Tox21 Results Human FXRa Activity Human FXRa (Human FXRa [3]; ref Tox21 dataset): Active | Tox21 Results Human FXRa AC50 (Human FXRa [3]; ref Tox21 dataset): 4.96 µM

recruitment with moxidectin, percent (reference as for human FXRα: GW4064 alone) [4]: 126%
Molecule: VP16 activation domain fused to medaka FXRα2 (pVP16-mFXRα2) (receptor)

Molecule: Ivermectin [reference compound]
Current Study Human FXRa Activity Human FXRa (human FXRα [1]): Active | AC50 (human FXRα [1]; [9]): 2.35 µM | Current Study Medaka FXRa2 Activity Medaka FXRa2 (medaka FXRα2 [2]): Active | AC50 (medaka FXRα2 [2]; read-out: Current Study Medaka FXRa2 AC50): 11.2 µM | Tox21 Results Human FXRa Activity Human FXRa (Human FXRa [3]; ref Tox21 dataset): Active

Current Study Human FXRa Activity Human FXRa (human FXRα [5]): Active | AC50 (human FXRα [5]; [9]): 9.8 µM | Current Study Medaka FXRa2 Activity Medaka FXRa2 (medaka FXRα2 [6]; Agonists, HEK293T, 24 h): Active | AC50 (medaka FXRα2 [6]; read-out: Current Study Medaka FXRa2 AC50, Agonists, HEK293T, 24 h): > 100 µM
Molecule: C[C@@H]1C[C@H]2O[C@@]3(O[C@@H]2C(C)(C)O)[C@H](O)[C@@]2(C)[C@@H]4CC[C@H]5C(C)(C)[C@@H](O[C@@H]6OC[C@@H](O)[C@H](O)[C@H]6O)CC[C@@]56C[C@@]46CC[C@]2(C)[C@@H]13 [Cimicifugoside]
AC50 (Human FXRa [7]; [10]): 5 µM | Activity Decision (Human FXRa [7]; [10]): Active | Tox21 Results Human FXRa AC50 (Human FXRa [7]; ref Tox21 dataset): 5.52 µM | Tox21 Results Human FXRa Activity Human FXRa (Human FXRa [7]; ref Tox21 dataset): Active

Molecule: O=C1OC(c2ccc(O)cc2)(c2ccc(O)cc2)c2ccccc21 [Phenolphthalein]
cytotoxicity / toxicity to medaka larvae in agonist exposures (medaka larvae): significant cytotoxicity; also recorded: toxic to medaka larvae

Current Study Human FXRa Activity Human FXRa (human FXRα [1]): Inactive | Current Study Medaka FXRa2 Activity Medaka FXRa2 (medaka FXRα2 [2]): Active | Current Study Medaka FXRa2 Activity Medaka FXRa2 (medaka FXRα2 [2]; listed as tricaprylin): exhibited antagonist activity
Molecule: CCCCCCCC(=O)OCC(COC(=O)CCCCCCC)OC(=O)CCCCCCC [Tricaprylin]
Tox21 Results Human FXRa Activity Human FXRa (Human FXRa [3]; ref Tox21 dataset): Inactive

EC50 (medaka FXRα2 [6]): 0.269 µM
Molecule: CC(C)c1onc(-c2c(Cl)cccc2Cl)c1COc1ccc(C=Cc2cccc(C(=O)O)c2)c(Cl)c1 [GW4064, 3-(2,6-Dichlorophenyl)-4-(3′-carboxy-2-chlorostilben-4-yl) oxymethyl-5-isopropylisoxazole, reference compound]

Molecule: CO/N=C1\C[C@]2(C[C@@H]3C[C@@H](C/C=C(\C)C[C@@H](C)/C=C/C=C4\CO[C@@H]5[C@H](O)C(C)=C[C@@H](C(=O)O3)[C@]45O)O2)O[C@H](/C(C)=C/C(C)C)[C@H]1C [Moxidectin, reference compound]
AC50 (human FXRα [1]): 12.5 µM | Current Study Human FXRa Activity Human FXRa (human FXRα [1]): Active | EC50 (human FXRα [1]): 12.5 µM | Current Study Medaka FXRa2 Activity Medaka FXRa2 (medaka FXRα2 [2]): Active | Tox21 Results Human FXRa Activity Human FXRa (Human FXRa [3]; ref Tox21 dataset): Active/Inactive

Molecule: COc1nc(NC(C)C)nc(NC(C)C)n1 [Prometon]
Current Study Human FXRa Activity Human FXRa (human FXRα [5]; Agonists, HEK293T, 24 h): Inactive | Current Study Human FXRa Activity Human FXRa (human FXRα [5]; [11]): confirmed inactive | Current Study Medaka FXRa2 Activity Medaka FXRa2 (medaka FXRα2 [6]; Agonists, HEK293T, 24 h): Inactive | Current Study Medaka FXRa2 Activity Medaka FXRa2 (medaka FXRα2 [6]; [11]): confirmed as inactive | Activity Decision (Human FXRa [7]; [10]): Inactive | Tox21 Results Human FXRa Activity Human FXRa (Human FXRa [7]; ref Tox21 dataset): Inactive

Molecule: COc1cc2c(c(OC)c1OC)-c1ccc(OC)c(=O)cc1[C@@H](NC(C)=O)CC2 [Colchicine, reference compound]
Current Study Human FXRa Activity Human FXRa (human FXRα [1]): Inactive | Current Study Medaka FXRa2 Activity Medaka FXRa2 (medaka FXRα2 [2]): Inactive | Tox21 Results Human FXRa Activity Human FXRa (Human FXRa [3]; ref Tox21 dataset): Inactive

Molecule: O=c1ccc(=O)[nH][nH]1 [Maleic hydrazide]
Current Study Human FXRa Activity Human FXRa (human FXRα [5]; Agonists, HEK293T, 24 h): Inactive | Current Study Human FXRa Activity Human FXRa (human FXRα [5]; [12]): confirmed inactive | Current Study Medaka FXRa2 Activity Medaka FXRa2 (medaka FXRα2 [6]; Agonists, HEK293T, 24 h): Inactive | Current Study Medaka FXRa2 Activity Medaka FXRa2 (medaka FXRα2 [6]; [12]): confirmed as inactive | cytotoxicity / toxicity to medaka larvae in agonist exposures (medaka larvae): significant cytotoxicity | Activity Decision (Human FXRa [7]; [10]): Inactive | Tox21 Results Human FXRa Activity Human FXRa (Human FXRa [7]; ref Tox21 dataset): Inactive

Molecule: CCC(C)(c1ccc(O)cc1)c1ccc(O)cc1 [Bisphenol B]
AC50 (human FXRα [1]): 11.9 µM | Current Study Human FXRa Activity Human FXRa (human FXRα [1]): Active | EC50 (human FXRα [1]): 11.9 µM | Current Study Medaka FXRa2 Activity Medaka FXRa2 (medaka FXRα2 [2]): Active | Current Study Medaka FXRa2 Activity Medaka FXRa2 (medaka FXRα2 [2]; listed as bisphenol B): exhibited antagonist activity | AC50 (Human FXRa [3]): 57.2 µM | Tox21 Results Human FXRa Activity Human FXRa (Human FXRa [3]; ref Tox21 dataset): Active

Molecule: c1ccc(P(c2ccccc2)c2ccccc2)cc1 [Triphenylphosphine]
cytotoxicity / toxicity to medaka larvae in agonist exposures (medaka larvae): significant cytotoxicity

recruitment with moxidectin and GW4064, percent of that with GW4064 alone [8]: 132%
B1: VP16 activation domain fused to full-length human FXRα (pVP16-hFXRα) (receptor)
chain: MVMQFQGLENPIQISPHCSCTPSGFFMEMMSMKPAKGVLTEQVAGPLGQNLEVEPYSQYSNVQFPQVQPQISSSSYYSNLGFYPQQPEEWYSPGIYELRRMPAETLYQGETEVAEMPVTKKPRMGASAGRIKGDELCVVCGDRASGYHYNALTCEGCKGFFRRSITKNAVYKCKNGGNCVMDMYMRRKCQECRLRKCKEMGMLAECMYTGLLTEIQCKSKRLRKNVKQHADQTVNEDSEGRDLRQVTSTTKSCREKTELTPDQQTLLHFIMDSYNKQRMPQEITNKILKEEFSAEENFLILTEMATNHVQVLVEFTKKLPGFQTLDHEDQIALLKGSAVEAMFLRSAEIFNKKLPSGHSDLLEERIRNSGISDEYITPMFSFYKSIGELKMTQEEYALLTAIVILSPDRQYIKDREAVEKLQEPLLDVLQKLCKIHQPENPQHFACLLGRLTELRTFNHHHAEMLMSWRVNDHKFTPLLCEIWDVQ

— PMC9637864 (Current Research in Toxicology, 2022)
